Experimental data: article PMC6804107, “Separation and Lipid Inhibition Effects of a Novel Decapeptide from Chlorella pyenoidose” (Molecules, 2019)

Legend:
[1] = molecular target: T1, porcine pancreatic lipase (PL) (Sus scrofa, UniProt P00591); assay: Pancreatic lipase inhibition, Copper soap method; assay type: biochemical; settings: olive oil substrate, PBS pH 7.38, triplicate
T1 construct: purchased Sigma
T1 sequence (P00591 1-450): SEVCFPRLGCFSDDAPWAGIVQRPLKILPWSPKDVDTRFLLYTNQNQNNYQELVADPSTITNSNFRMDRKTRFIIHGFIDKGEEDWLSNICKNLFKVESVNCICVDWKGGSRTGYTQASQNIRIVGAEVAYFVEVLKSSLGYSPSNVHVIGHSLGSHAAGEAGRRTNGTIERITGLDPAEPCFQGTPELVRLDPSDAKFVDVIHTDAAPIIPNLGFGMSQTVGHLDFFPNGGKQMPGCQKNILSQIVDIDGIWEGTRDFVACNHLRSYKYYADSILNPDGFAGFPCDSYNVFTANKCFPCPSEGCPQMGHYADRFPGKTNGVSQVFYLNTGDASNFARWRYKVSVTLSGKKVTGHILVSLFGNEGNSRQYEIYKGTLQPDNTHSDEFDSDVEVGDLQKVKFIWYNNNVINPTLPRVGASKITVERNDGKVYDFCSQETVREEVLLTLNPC
Method: Copper soap method: The lipase activity assay involved a reaction medium (10 mL) containing 1 mg of olive oil, 3 mL 0.0667 mol/L, pH = 7.38 phosphate buffer saline (PBS), and 0.1 mL (C = 1 mg/mL) of lipase in the presence of 1 mL peptides with different concentrations. The peptides solution was prepared by dissolving in the working solution and was then added to reaction mixtures just before the reaction. Control lipase activity was determined without peptides. All samples were analyzed in triplicate. (1) Inhibition%=1−(Aa−A0)−(Ab−A0)/(Aa−A0)×100% where Ab refers to the absorbance value of the normal group; A0 is referred to the absorbance value of blank; and Aa is the absorbance values of the control group.

3T3-L1 adipocytes [2] = assay: Intracellular triacylglycerol in 3T3-L1 adipocytes; assay type: cell-based; settings: for decrease of intracellular triacylglycerol accumulation: 3T3-L1 cells
Method: (§1) First, 3T3-L1 cells were cultured in Dulbecco’s modified Eagle’s medium (DMEM) medium containing 10% (v/v) fatal bovine serum (FBS) and 1% antibiotics in a humidified atmosphere of 5% CO2 at 37 °C. For cell toxicity assessment, 3T3-L1 cells (1 × 10^5) were seeded in a 96-well plate for 24 h. After that, the cells were incubated for 6 days in DMEM containing various concentrations (0–1.0 mg/mL) of the synthetic PP1. Cell toxicity was measured by MTT according to the instructions indicated by the manufacturer. For cell differentiation, 3T3-L1 cells were seeded in 6-well plates at a density of 2 × 10^5 cells/well. Then, the medium was changed by DMEM with insulin (5 μg/mL; Sigma), 1 μM of dexamethasone (Sigma), and 0.5 mM of 3-isobutyl-1-methylxanthine. On day 3, the medium was replaced with DMEM containing insulin (5 μg/mL; Sigma) and 10% (v/v) FBS every 3 days. Various concentrations of the synthetic PP1 were attendant during the whole process of differentiation induction. Oil Red O staining of the intracellular lipids was carried out, as described previously. Moreover, intracellular triacylglycerol levels were measured by using an Assay Triglyceride Kit. Protein concentrations were determined with BCA Protein Assay.

C/EBPα = assay: Western blot, C/EBPα expression; assay type: cell-based; settings: PP1 600 μg/mL, 3T3-L1 adipocytes
Method: (§2) Cells were lysed in Radio Immunoprecipitation Assay (RIPA) buffer for 1 h and then centrifuged at 12,000 rpm for 25 min at 4 °C. The protein concentrations were determined by using a BCA protein assay kit. The supernatants were mixed with 4 × Sodium dodecyl sulfate (SDS) sample buffer and boiled for 10 min. The samples were run on a 4–15% SDS polyacrylamide gel and then transferred to a polyvinylidene difluoride membrane. The membrane was blocked with 5% (w/v) bovine serum albumin (BSA) for 30 min and then incubated with primary antibodies at 4 °C overnight. After washing with Tris-Buffered Saline and Tween 20 (TBST) 3 times, the membranes were washed with TBST and incubated with the secondary antibodies. Signals were detected with a scanner (Thermo Fisher Scientific, Inc.), and the fluorescence intensity was measured using Image software.

PPARγ = assay: Western blot, PPARγ expression; assay type: cell-based; settings: PP1 600 μg/mL, 3T3-L1 adipocytes
Method: as §2

3T3-L1 adipocytes [3] = assay: Lipid accumulation / differentiation in 3T3-L1 cells (Oil Red O); assay type: cell-based
Method: as §1

AMPKα = assay: Western blot, AMPKα expression; assay type: cell-based; settings: PP1 600 μg/mL, 3T3-L1 adipocytes
Method: as §2

SREBP-1c = assay: Western blot, SREBP-1c expression; assay type: cell-based; settings: PP1 600 μg/mL, 3T3-L1 adipocytes
Method: as §2

[4] = Table 2, Alcalase hydrolysate fractions and positive drugs, mean ± SD, test concentration not given

| Compound | Inhibition of Pancreatic Lipase [1, 4] [%] | decrease of intracellular triacylglycerol accumulation (3T3-L1 adipocytes [2]; simvastatin 10 μM, positive drug) [%] | C/EBPα protein level (C/EBPα) | PPARγ protein level (PPARγ) | differentiation inhibition (3T3-L1 adipocytes [3]; 3T3-L1 pre-adipocytes) | number of intracellular lipid droplets (3T3-L1 adipocytes [3]; Oil Red O, PP1 present during differentiation, compared with model group) | AMPKα protein expression (AMPKα) | Inhibition of Pancreatic Lipase ([1]; synthetic peptide at 200 μg/mL) [%] | decrease of intracellular triacylglycerol accumulation (3T3-L1 adipocytes [2]; PP1 600 μg/mL) [%] | intracellular triacylglycerol level (3T3-L1 adipocytes [2]; PP1 600 μg/mL during differentiation, p < 0.05, mature adipocyte (model) 82.98 ± 11.2, pre-adipocytes 25.98 ± 1.6) [nmol/mg protein] | SREBP-1c protein level (SREBP-1c) |
| --- | --- | --- | --- | --- | --- | --- | --- | --- | --- | --- | --- |
| CCC(C)(C)C(=O)O[C@H]1C[C@@H](C)C=C2C=C[C@H](C)[C@H](CC[C@@H]3C[C@@H](O)CC(=O)O3)[C@H]21 [simvastatin, reference compound] | 35.2 ± 1.9 | 24.1 |  |  |  |  |  |  |  |  |  |
| Leu-Leu-Val-Val-Try-Pro-Trp-Thr-Gln-Arg (LLVVYPWTQR) [PP1, synthetic decapeptide identified from A2 fraction of Alcalase hydrolysate] |  |  | decreased the levels of C/EBPα | decreased the levels of C/EBPα, SREBP-1c, and PPARγ | good differentiation inhibition activity | clearly decreased compared with that in the model group | significantly increased the expression of AMPKα | 47.95 | 27.9 | 59.82 ± 6.78 | decreased the levels of C/EBPα, SREBP-1c |
| CCCCCCCCCCC[C@@H](C[C@@H]1OC(=O)[C@H]1CCCCCC)OC(=O)[C@H](CC(C)C)NC=O [Orlistat] | 88.85 ± 2.42 |  |  |  |  |  |  |  |  |  |  |
